This is an account of results in article PMC8213057, “Targeting ALK2: An Open Science Approach to Developing Therapeutics for the Treatment of Diffuse Intrinsic Pontine Glioma” (Journal of Medicinal Chemistry, 2020).

Each structure is given as a SMILES string.

One test has as its target CDC7/DBF4 (Homo sapiens, UniProt O00311). As to the kind of experiment: biochemical. The note with it: read-out: % enzyme activity, 1 μM; Run 1, Run 2.
The next test concerns the target EPHA2 (Homo sapiens, UniProt P29317). The note with it: 1 μM; Run 1, Run 2.
For a further test, the target named is ABL2/ARG (Homo sapiens, UniProt P42684). Conditions: 1 μM; Run 1, Run 2.
The target in another test is PAK2 (Homo sapiens, UniProt Q13177). The note with it: 1 μM; Run 1, Run 2.
The target in a further test is CAMK2a (Homo sapiens, UniProt Q9UQM7). Conditions: 1 μM; Run 1, Run 2.
For another test, the target named is T1, MKK7 (Homo sapiens, UniProt O14733).
T1 sequence (O14733 1-419): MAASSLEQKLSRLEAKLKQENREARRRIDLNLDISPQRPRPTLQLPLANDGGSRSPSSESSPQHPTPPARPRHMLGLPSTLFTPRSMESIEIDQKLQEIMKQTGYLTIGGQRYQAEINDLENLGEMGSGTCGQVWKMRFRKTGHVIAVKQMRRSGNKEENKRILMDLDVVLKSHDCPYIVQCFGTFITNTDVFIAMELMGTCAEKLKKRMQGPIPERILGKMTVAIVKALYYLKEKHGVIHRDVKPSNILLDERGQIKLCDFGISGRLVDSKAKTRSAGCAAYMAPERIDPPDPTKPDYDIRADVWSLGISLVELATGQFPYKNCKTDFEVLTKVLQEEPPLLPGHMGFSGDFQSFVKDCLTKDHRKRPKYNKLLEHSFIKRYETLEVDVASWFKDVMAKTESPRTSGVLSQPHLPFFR
As to the kind of experiment: biochemical. The note with it: read-out: % enzyme activity, 1 μM; Run 1, Run 2.

In a further test the target is TESK1 (Homo sapiens, UniProt Q15569). As to the kind of experiment: biochemical. Conditions: read-out: % enzyme activity, 1 μM; Run 1, Run 2.
A further test has as its target CHK2 (Homo sapiens, UniProt O96017). Conditions: 1 μM; Run 1, Run 2.
Another test concerns the target T2, NEK1 (Homo sapiens, UniProt Q96PY6).
T2 sequence (Q96PY6 1-1258): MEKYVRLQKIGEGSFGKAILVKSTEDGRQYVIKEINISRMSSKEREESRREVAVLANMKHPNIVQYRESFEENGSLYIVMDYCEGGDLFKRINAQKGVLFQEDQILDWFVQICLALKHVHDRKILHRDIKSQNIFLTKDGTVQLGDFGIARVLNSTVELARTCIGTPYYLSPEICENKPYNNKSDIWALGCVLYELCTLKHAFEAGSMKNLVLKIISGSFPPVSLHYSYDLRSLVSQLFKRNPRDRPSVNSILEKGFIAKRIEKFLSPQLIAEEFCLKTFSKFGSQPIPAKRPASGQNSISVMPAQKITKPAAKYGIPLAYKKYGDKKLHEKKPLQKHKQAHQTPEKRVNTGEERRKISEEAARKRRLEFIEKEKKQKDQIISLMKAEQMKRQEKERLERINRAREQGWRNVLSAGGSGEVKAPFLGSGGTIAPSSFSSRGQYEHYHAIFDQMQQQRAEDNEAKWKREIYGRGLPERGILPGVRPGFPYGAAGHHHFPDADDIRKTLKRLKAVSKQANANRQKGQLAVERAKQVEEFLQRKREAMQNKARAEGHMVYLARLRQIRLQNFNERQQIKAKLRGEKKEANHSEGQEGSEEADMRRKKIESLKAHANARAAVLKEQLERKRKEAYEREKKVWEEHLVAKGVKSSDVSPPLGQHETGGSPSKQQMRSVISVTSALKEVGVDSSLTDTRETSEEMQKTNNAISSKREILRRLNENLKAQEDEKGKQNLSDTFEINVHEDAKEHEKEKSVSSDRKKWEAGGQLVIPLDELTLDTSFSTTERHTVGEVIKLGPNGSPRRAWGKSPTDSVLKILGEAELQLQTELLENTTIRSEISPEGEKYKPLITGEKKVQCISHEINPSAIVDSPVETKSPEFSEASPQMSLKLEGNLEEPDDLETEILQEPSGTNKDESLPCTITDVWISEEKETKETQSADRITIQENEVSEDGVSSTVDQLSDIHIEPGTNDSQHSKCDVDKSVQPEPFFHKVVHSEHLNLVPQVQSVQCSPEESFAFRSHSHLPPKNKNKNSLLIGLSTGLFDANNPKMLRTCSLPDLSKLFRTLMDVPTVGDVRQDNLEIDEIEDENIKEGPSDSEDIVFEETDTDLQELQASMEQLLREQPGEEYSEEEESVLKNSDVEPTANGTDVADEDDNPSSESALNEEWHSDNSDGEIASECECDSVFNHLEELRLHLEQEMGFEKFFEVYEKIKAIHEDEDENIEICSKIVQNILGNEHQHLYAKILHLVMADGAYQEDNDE
Conditions: 1 μM; Run 1, Run 2.

Another test deals with MRCKa/CDC42BPA (Homo sapiens, UniProt Q5VT25). Kind of test: biochemical. Conditions: read-out: % enzyme activity, 1 μM; Run 1, Run 2.
The target of another test is T3, MEKK3 (Homo sapiens, UniProt Q99759).
T3 sequence (Q99759 1-626): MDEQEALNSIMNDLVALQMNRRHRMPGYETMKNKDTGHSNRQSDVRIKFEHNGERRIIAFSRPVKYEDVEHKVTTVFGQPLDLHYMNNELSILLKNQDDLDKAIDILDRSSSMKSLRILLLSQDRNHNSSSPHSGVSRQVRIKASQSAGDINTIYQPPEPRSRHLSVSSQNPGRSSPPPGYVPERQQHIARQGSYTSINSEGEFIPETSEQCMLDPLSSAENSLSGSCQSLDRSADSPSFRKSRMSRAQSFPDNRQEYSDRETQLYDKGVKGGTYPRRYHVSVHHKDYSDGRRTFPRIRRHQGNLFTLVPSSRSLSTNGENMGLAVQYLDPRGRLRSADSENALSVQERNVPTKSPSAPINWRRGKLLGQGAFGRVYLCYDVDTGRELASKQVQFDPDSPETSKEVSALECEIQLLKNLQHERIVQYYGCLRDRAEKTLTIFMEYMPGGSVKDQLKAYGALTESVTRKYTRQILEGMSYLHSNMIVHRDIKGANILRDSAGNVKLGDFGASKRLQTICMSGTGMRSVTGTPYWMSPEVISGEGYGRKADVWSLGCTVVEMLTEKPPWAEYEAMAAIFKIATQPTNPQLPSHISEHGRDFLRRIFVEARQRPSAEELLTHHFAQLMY
Kind of test: biochemical. Conditions: read-out: % enzyme activity, 1 μM; Run 1, Run 2.

In another test the target is ERN2/IRE2 (Homo sapiens, UniProt Q76MJ5). As to the kind of experiment: biochemical. Conditions: read-out: % enzyme activity, 1 μM; Run 1, Run 2.
A further test addresses PKCd (Homo sapiens, UniProt Q05655). Kind of test: biochemical. The note with it: read-out: % enzyme activity, 1 μM; Run 1, Run 2.

Sequence of CDC7/DBF4 (O00311 whole entry): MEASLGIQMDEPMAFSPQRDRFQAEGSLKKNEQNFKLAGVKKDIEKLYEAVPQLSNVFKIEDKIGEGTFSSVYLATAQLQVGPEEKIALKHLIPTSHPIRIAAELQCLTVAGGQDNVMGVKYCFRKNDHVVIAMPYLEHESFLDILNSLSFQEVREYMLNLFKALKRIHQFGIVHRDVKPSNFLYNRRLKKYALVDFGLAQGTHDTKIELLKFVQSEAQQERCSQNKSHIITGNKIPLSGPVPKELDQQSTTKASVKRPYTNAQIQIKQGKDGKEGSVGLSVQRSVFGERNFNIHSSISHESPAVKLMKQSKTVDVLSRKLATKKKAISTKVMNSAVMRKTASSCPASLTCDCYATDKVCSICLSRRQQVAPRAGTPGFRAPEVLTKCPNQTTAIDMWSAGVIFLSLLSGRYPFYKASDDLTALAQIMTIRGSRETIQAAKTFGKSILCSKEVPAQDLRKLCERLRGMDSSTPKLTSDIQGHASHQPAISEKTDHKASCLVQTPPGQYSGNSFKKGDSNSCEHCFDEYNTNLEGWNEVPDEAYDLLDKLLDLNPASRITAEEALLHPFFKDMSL
Sequence of CDC7/DBF4 (Q9UBU7 whole entry partner): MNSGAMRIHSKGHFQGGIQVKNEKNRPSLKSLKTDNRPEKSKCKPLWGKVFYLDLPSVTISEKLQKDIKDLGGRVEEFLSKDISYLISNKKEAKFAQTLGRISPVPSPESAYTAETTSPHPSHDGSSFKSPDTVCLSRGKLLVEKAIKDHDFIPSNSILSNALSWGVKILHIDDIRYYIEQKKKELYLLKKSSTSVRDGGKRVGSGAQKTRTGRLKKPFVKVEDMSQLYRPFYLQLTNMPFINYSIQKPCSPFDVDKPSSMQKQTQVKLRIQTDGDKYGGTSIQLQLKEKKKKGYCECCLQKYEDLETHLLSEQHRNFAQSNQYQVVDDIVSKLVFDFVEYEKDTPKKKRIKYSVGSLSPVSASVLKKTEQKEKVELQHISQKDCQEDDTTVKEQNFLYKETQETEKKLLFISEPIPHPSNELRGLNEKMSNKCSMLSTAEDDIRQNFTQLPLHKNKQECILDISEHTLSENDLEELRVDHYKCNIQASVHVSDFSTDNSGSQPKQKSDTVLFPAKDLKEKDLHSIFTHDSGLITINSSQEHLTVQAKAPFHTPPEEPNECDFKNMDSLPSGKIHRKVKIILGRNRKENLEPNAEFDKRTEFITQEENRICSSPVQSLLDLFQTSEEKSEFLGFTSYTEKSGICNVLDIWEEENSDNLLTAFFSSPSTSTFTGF
Sequence of PAK2 (Q13177 whole entry): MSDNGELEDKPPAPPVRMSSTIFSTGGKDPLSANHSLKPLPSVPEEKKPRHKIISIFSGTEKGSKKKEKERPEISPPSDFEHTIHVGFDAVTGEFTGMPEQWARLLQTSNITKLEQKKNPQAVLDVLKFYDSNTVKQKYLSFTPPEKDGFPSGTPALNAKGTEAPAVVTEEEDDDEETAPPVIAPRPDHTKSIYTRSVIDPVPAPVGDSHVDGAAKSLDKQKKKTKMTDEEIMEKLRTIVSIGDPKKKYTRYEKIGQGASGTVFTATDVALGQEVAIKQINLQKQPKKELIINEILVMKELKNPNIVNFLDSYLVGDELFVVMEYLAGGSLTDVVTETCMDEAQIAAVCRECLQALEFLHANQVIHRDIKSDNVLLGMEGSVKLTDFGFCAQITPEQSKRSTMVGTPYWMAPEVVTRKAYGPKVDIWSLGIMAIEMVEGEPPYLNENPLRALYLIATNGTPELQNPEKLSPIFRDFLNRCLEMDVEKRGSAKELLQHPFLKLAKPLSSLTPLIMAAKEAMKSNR
Sequence of TESK1 (Q15569 whole entry): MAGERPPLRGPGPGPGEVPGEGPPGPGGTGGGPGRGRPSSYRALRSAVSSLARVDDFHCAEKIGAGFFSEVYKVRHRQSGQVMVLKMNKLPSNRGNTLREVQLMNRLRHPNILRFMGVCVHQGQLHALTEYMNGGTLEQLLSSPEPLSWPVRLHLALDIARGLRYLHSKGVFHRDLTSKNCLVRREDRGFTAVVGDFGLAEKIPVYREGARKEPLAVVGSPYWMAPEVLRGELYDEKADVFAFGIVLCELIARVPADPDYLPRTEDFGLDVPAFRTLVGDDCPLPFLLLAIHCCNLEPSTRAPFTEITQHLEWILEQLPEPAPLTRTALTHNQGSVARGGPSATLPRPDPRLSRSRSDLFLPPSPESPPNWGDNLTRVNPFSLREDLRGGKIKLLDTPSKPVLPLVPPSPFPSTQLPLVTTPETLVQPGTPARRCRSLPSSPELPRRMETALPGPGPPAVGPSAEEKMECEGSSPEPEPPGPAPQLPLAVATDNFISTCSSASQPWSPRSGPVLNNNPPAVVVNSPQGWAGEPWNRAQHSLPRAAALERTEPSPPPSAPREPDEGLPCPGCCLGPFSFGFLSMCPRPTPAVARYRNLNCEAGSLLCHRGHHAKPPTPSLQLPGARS
Sequence of EPHA2 (P29317 24-976): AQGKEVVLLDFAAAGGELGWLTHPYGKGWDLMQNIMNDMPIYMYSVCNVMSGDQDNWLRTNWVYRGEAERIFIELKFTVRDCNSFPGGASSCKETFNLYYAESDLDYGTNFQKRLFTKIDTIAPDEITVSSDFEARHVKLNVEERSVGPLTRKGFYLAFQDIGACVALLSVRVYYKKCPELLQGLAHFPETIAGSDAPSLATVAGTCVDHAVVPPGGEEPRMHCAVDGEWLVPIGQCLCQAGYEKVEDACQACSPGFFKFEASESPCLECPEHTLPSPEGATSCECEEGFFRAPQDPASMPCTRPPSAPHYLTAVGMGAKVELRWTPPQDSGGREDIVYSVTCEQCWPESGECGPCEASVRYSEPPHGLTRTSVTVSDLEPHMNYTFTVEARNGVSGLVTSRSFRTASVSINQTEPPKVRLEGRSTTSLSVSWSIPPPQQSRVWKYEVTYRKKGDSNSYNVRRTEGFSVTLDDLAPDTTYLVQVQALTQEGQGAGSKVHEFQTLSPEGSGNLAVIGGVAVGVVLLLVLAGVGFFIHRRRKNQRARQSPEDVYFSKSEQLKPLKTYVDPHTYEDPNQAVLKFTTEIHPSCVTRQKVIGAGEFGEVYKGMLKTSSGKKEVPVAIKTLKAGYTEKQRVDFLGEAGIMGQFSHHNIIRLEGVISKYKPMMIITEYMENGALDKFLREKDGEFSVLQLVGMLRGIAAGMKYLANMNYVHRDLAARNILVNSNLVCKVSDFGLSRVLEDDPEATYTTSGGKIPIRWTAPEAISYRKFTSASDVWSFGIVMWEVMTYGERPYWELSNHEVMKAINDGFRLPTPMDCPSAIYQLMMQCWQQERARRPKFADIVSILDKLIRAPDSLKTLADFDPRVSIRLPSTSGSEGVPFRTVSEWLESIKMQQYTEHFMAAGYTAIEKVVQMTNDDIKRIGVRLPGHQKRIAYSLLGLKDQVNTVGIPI
Sequence of PKCd (Q05655 whole entry): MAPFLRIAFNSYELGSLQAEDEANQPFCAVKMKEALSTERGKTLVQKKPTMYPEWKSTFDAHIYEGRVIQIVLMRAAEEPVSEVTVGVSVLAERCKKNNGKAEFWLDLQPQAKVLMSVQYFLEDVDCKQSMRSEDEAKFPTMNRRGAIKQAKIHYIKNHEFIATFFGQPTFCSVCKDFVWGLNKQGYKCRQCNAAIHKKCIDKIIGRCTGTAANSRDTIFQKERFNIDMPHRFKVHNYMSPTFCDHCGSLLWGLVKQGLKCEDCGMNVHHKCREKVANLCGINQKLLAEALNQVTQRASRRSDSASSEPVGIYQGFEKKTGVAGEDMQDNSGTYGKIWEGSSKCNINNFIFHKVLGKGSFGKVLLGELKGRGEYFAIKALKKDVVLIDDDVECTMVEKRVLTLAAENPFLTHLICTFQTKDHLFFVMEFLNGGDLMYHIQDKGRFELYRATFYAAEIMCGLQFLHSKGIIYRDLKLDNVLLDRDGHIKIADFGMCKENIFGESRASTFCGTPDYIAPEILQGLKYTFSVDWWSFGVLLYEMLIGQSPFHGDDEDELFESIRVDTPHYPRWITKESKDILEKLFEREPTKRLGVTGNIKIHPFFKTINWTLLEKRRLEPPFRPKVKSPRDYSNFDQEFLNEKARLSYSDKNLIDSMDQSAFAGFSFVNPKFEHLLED
Sequence of CHK2 (O96017 whole entry): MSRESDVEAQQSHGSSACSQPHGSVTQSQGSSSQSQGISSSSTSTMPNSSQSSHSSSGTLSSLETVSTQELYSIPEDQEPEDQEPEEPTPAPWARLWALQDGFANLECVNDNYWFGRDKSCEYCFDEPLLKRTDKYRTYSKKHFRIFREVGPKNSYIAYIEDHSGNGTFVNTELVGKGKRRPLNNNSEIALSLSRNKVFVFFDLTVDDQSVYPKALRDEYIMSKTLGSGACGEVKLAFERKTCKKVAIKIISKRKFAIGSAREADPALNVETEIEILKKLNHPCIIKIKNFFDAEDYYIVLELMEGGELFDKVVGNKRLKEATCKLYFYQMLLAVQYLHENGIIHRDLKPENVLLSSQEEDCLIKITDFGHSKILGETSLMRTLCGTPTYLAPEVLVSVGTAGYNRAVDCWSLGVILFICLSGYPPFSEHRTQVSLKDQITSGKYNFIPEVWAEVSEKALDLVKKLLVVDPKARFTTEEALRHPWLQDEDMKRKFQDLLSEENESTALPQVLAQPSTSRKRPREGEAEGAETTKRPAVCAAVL
Sequence of CAMK2a (Q9UQM7 whole entry): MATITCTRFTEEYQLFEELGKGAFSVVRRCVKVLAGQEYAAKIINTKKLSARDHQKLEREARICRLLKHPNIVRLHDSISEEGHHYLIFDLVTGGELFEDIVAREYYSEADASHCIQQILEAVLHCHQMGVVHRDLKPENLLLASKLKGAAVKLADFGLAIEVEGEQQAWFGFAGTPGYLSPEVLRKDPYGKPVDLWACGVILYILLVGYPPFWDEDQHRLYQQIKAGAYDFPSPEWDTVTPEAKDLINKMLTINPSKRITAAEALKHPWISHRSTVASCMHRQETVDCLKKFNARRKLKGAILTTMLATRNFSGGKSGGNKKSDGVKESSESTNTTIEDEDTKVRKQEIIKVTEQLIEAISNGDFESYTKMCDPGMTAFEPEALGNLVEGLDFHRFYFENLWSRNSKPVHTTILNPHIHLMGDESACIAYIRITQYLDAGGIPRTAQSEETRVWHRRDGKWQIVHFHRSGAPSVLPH

Take `COc1cc(-c2cncc(-c3ccc(N4CCN(C)CC4)cc3)c2C)cc(F)c1C(N)=O` [Compound 26a, 2-Fluoro-6-methoxy-4-(4-methyl-5-(4-(4-methylpiperazin-1-yl)phenyl)pyridin-3-yl)benzamide]: the remaining activity at 1 µM was 92.2% on CDC7/DBF4; 93% at MKK7; 114% at TESK1; 103% on MRCKa/CDC42BPA; 98% on MEKK3; 97.5% at ERN2/IRE2. Moreover, at PKCd, the remaining activity at 1 µM worked out at 99%. Moreover, the “% enzyme activity” value came out at 97.38% at EPHA2; 95.77% on ABL2/ARG; 100.35% on PAK2; 83.69% on CAMK2a; 99.41% at CHK2; 84.54% on NEK1.

For `COc1cc(-c2cncc(-c3ccc(N4C[C@@H](C)N(C)[C@@H](C)C4)cc3)c2C)cc(F)c1C(N)=O` [Compound 26c, 2-Fluoro-6-methoxy-4-(4-methyl-5-(4-((3R,5S)-3,4,5-trimethylpiperazin-1-yl)phenyl)pyridin-3-yl)benzamide], the remaining activity at 1 µM on CDC7/DBF4 was 94.2%; at MKK7, 98.7%; on TESK1 it was 105%; at MRCKa/CDC42BPA it was 105%; at MEKK3 it was 109%; at ERN2/IRE2 it was 98.9%. In addition, the remaining activity at 1 µM on PKCd turned out to be 101%. The “% enzyme activity” value on EPHA2 worked out at 104.56%; at ABL2/ARG it was 96.59%; at PAK2, 103.95%; on CAMK2a it was 93.72%; at CHK2, 101.19%; at NEK1, 84.46%.
